Assays:
CCD2 [1] = experiment: In vitro assay with semi-purified extracts of E. coli expressing CCD2, specificity for carotenoids; type: biochemical, Crocus sativus
Source text: (§1) RNA isolated from stigmas of saffron was sequenced by means of RNA-Seq 454 Titanium technology as reported in the literature (10) (FIG. 2A). The evolutionary relationships between the gene families CCD1 and CCD4 of saffron, Arabidopsis, rice and Synechocystis, were studied using the Neighbor-Joining method (11) (FIG. 2B), whilst the CCD proteins were modelled using the web server RaptorX (12) (FIG. 2C). The assays in bacteria were obtained by transforming particular strains of E. coli engineered to accumulate lycopene, β-carotene, and zeaxanthin, with the expression vectors pThio-DAN1-CCD2, pThio-DAN1-ZCD and pThio-DAN1 (empty vector, used as control) as indicated in the literature (13) (14) (15) (FIG. 3). The transformation of corn endosperm, in Agrobacterium tumefaciens-mediated manner, was obtained by cloning the coding sequence of CCD2 in the vector pBI121 (16) and by using protocols already present in the literature (17). The strain of E. coli BL21 (p-Gro7) was used to assay the activity in vitro of CCD2: the raw protein extracts were prepared and incubated with the appropriate substrates and extracts as described before (14) (FIG. 4). All the analyses directed to the identification and quantification of the carotenoids and apocarotenoids were performed using a mass spectrometry platform LTQ-Orbitrap coupled with a high-pressure liquid chromatography (HPLC) system and with a diode array detector (DAD) (ThermoFisher Scientific); the chromatographic separation was obtained using a C30 column with inverse phase, whereas for positive ionisation an APCI (Atmospheric Pressure Chemical Ionization) source was selected (18).
Since the strains of genetically modified E. coli can produce only a limited number of different carotenoids, we developed and used an in vitro assay, based on semi-purified extracts of E. coli that expresses CCD2, in order to study the specificity of this enzyme for the various carotenoids. […] 3-OH-β-apo-8′-carotenal, formed from CCD2 on the basis of the zeaxanthin in vitro, is then cleaved from the CCD2, with production of crocetin, signalling that the extracts of E. coli are able to convert the product of CCD2, crocetin dialdehyde, into crocetin.

ZCD [2] = target: T1, ZCD (Crocus sativus, UniProt Q84K96); experiment: Corn endosperm transformed with 35S:ZCD, carotenoids and apocarotenoids by LC-HRMS; type: cell-based; conditions: for Relative content of carotenoids and apocarotenoids in corn endosperm: 35S: ZCD, peak areas of the ions standardised by the internal standard, mean ± SD of 4 biological repetitions
T1 construct: expressed in transfected cells; host or cells: corn (maize) endosperm, Agrobacterium tumefaciens-mediated transformation
T1 sequence (Q84K96 1-369): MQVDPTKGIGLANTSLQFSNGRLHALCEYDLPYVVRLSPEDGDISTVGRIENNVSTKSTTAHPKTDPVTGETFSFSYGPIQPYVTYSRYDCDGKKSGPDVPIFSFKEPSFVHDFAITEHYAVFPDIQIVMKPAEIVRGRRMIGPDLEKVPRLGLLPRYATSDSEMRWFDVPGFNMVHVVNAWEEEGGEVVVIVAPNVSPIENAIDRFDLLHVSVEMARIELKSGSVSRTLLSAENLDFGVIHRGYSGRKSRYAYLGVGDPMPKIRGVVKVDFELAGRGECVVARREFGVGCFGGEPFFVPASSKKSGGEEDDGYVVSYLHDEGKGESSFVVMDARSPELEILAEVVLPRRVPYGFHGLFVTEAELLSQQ
Source text: as §1
The sequences coding CCD2 and ZCD were cloned in the binary vector pBI121 under the control of the established promoter 35S. The vectors thus obtained were used to transform corn endosperm and cells of Arabidopsis thaliana, which contain zeaxanthin. […] Such a conversion is caused by the conversion of crocetin dialdehyde to crocetin in the corn endosperm (Table 1) and in the cells of Arabidopsis thaliana.

CCD2 [3] = experiment: CCD2 expressed in E. coli strains that accumulate lycopene, β-carotene or zeaxanthin; type: cell-based, Crocus sativus; conditions: E. coli strain accumulating the carotenoid, expression of CCD2
Source text: as §1
(§2) The coding sequences of the genes CCD2 and ZCD were cloned in the vector pThio-DAN1, which allows an inducible expression in E. coli induced from arabinose. The recombinant proteins were expressed in three strains of E. coli that accumulate lycopene, β-carotene and zeaxanthin (FIG. 3A) (13) (14). […] A peak with the chromatographic and the m/z ratio (329.1747) typical of crocetin was also discernible.

ZCD [4] = target: T1, ZCD; experiment: ZCD expressed in E. coli strains that accumulate lycopene, β-carotene or zeaxanthin; type: cell-based; conditions: E. coli strain accumulating the carotenoid, expression of ZCD
Source text: as §1, §2

ZCD [5] = target: T1, ZCD; experiment: In vitro assay with extracts of E. coli expressing ZCD, specificity for carotenoids; type: biochemical

Compound	Cleavage of the substrate in vitro (CCD2 [1])	Relative content of carotenoids and apocarotenoids in corn endosperm (ZCD [2])	Discoloration and cleavage product of the accumulated carotenoid (CCD2 [3])	Discoloration and cleavage product of the accumulated carotenoid (ZCD [4])	also measured
3-OH-β-apo-8′-carotenal	cleaved	–	–	–	–
CC1=C[C@H](O)CC(C)(C)[C@H]1/C=C/C(C)=C/C=C/C(C)=C/C=C/C=C(C)/C=C/C=C(C)/C=C/C1=C(C)C[C@@H](O)CC1(C)C [Lutein]	–	0.64 ± 0.09	–	–	–
CC1=C(/C=C/C(C)=C/C=C/C(C)=C/C=C/C=C(C)/C=C/C=C(C)/C=C/C2=C(C)C[C@@H](O)CC2(C)C)C(C)(C)C[C@H](O)C1 [Zeaxanthin]	cleaves	1.73 ± 0.20	clear discoloration	did not produce any discoloration or any cleavage product	Cleavage product of zeaxanthin produced (ZCD [2]; corn endosperm expressing ZCD): No cleavage product; Cleavage of the substrate in vitro (ZCD [5]): does not cleave
CC(C)=CCC/C(C)=C/C=C/C(C)=C/C=C/C(C)=C/C=C/C=C(C)/C=C/C=C(C)/C=C/C=C(\C)CCC=C(C)C [lycopene]	–	–	no discoloration and no cleavage product	no discoloration and no cleavage product	–
CC(/C=C/C=C(C)/C=C/[C@@]12O[C@]1(C)C[C@@H](O)CC2(C)C)=C\C=C\C=C(C)\C=C\C=C(C)\C=C\[C@@]12O[C@]1(C)C[C@@H](O)CC2(C)C [violaxanthin]	does not cleave	–	–	–	–
CC1=C(/C=C/C(C)=C/C=C/C(C)=C/C=C/C=C(C)/C=C/C=C(\C)C=O)C(C)(C)CCC1 [β-apo-8′-carotenal]	does not cleave	–	–	–	–
CC1=C(/C=C/C(C)=C/C=C/C(C)=C/C=C/C=C(C)/C=C/C=C(C)/C=C/C2=C(C)CCCC2(C)C)C(C)(C)CCC1 [β-carotene]	does not cleave	–	no discoloration and no cleavage product	no discoloration and no cleavage product	–
CC1=C(/C=C/C(C)=C/C=C/C(C)=C/C=C/C=C(C)/C=C/C=C(C)/C=C/C2=C(C)C[C@@H](O)CC2(C)C)C(C)(C)CCC1 [β-cryptoxanthin]	–	0.12 ± 0.04	–	–	–

From patent publication US9969989B2, “Carotenoid dioxygenase and methods for the biotechnological production in microorganisms and plants of compounds derived from saffron” (AGENZIA NAZIONALE PER LE NUOVE TECNOLOGIE, L'ENERGIA E LO …, priority 2014, dated 2018)
